PubChem BioAssay (NCI)
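Interpolation was linear, between the two tested concentrations surrounding the appropriate level; five concentrations were tested over 48 hours in 96-well plates. TGI: concentration producing complete growth inhibition.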

Tests used:
Assay in all cases: inhibition of tumour cell growth, NCI panel, 48 h
[1] = system: OVCAR-3 ovarian
[2] = system: ACHN renal
[3] = system: M14 melanoma
[4] = system: UO-31 renal
[5] = system: UACC-257 melanoma
[6] = system: RXF 393 renal
[7] = system: NCI-H460 lung
[8] = system: 786-0 renal
[9] = system: PC-3 prostate
[10] = system: MOLT-4 leukemia
[11] = system: SK-OV-3 ovarian
[12] = system: UACC-62 melanoma
[13] = system: RPMI-8226 leukemia
[14] = system: SF-268 CNS
[15] = system: MDA-MB-435
[16] = system: SNB-19 CNS
[17] = system: HOP-62 NSCLC
[18] = system: HS 578T breast
[19] = system: MDA-MB-231 breast
[20] = system: COLO 205 colon
[21] = system: SR leukemia
[22] = system: SNB-75 CNS
[23] = system: U251 CNS
[24] = system: SK-MEL-2 melanoma
[25] = system: IGROV1 ovarian
[26] = system: HOP-92 NSCLC
[27] = system: SN12C renal
[28] = system: NCI/ADR-RES ovarian
[29] = system: CCRF-CEM leukemia
[30] = system: TK-10 renal
[31] = system: NCI-H226 lung
[32] = system: MDA-N
[33] = system: OVCAR-4 ovarian
[34] = system: SF-295 CNS
[35] = system: EKVX NSCLC
[36] = system: KM12 colon
[37] = system: NCI-H23 lung
[38] = system: OVCAR-8 ovarian
[39] = system: SF-539 CNS
[40] = system: MCF7 breast
[41] = system: SW-620 colon
[42] = system: HCC-2998 colon
[43] = system: HCT-15 colon
[44] = system: DU-145 prostate
[45] = system: CAKI-1 renal
[46] = system: NCI-H522 lung
[47] = system: OVCAR-5 ovarian
[48] = system: BT-549 breast
[49] = system: HCT-116 colon
[50] = system: K-562 leukemia
[51] = system: A498 renal
[52] = system: SK-MEL-5 melanoma
[53] = system: T-47D breast
[54] = system: LOX IMVI melanoma
[55] = system: MALME-3M melanoma
[56] = system: HL-60(TB) leukemia
[57] = system: HT29 colon
[58] = system: A549 NSCLC
[59] = system: SK-MEL-28 melanoma

Measured: TGI

C#CCOC(=O)c1ccc(OC(C)=O)cc1
not listed: [55] | [56] | [57] | [58] | [59]
> 100 µM: all other assays above

O=C(O)/C=C\C(=O)Nn1c(Cc2ccc(Cl)cc2)n[nH]c1=O
not listed: [2] | [4] | [13] | [16] | [22] | [26] | [36] | [41] | [54] | [59]
> 100 µM: all other assays above

C=C1CC(C)(c2cccc(Nc3nc4ccccc4c4occc34)c2)OC1=O (configuration not stated)
7.29 µM: [26]
3.47 µM: [5] | [39]
43.8 µM: [36]
5.38 µM: [56]
21.3 µM: [38]
29.1 µM: [14]
59.4 µM: [16]
16.4 µM: [40]
5.08 µM: [29]
7.26 µM: [3]
27.9 µM: [35]
21.9 µM: [9]
9.16 µM: [18]
27.2 µM: [11]
4.62 µM: [13]
3.08 µM: [8]
16.6 µM: [57]
32.1 µM: [51]
39.1 µM: [55]
7.75 µM: [27]
18.3 µM: [22] | [32]
21.8 µM: [15]
28.3 µM: [52]
17.6 µM: [20]
5.04 µM: [4]
3.1 µM: [49]
4.54 µM: [31]
> 100 µM: [10] | [23]
17.4 µM: [43] | [48]
33.8 µM: [7]
25.9 µM: [17]
16.7 µM: [45]
20.4 µM: [33]
46.3 µM: [58]
20.5 µM: [53]
19.9 µM: [44]
34.9 µM: [34]
31.7 µM: [47]
17.5 µM: [1]
6.02 µM: [6]
23.1 µM: [19]
26.8 µM: [59] | [28]
5.84 µM: [42]
9.99 µM: [30]
2.43 µM: [12]
19.6 µM: [2]

CC(CNC(N)=O)NC(N)=O (configuration not stated)
not listed: [21]
> 100 µM: all other assays above
